# Measured values as given in US20120029027A1, “N-[(6-AZA-BICYCLO[3.2.1]OCT-5-YL)-ARYL-METHYL]-HETEROBENZAMIDE DERIVATIVES, PREPARATION THEREOF, AND THERAPEUTIC USE OF SAME” (SANOFI, priority 2009, published 2012).
# Structures can show the parent of a compound that is named as a salt.
# System: not given
# Assay: not given
# Conditions: not given
row,Compound,melting point [°C]
1,"CSc1ncccc1C(=O)NC(c1cccc(C)c1)C12CCCC(CN1)C2 (racemic) (as salt: HCl) [Compound 10, N-[(-6-Azabicyclo[3.2.1]oct-5-yl)-m-tolylmethyl]-2-methylsulfanylnicotinamide]",205 to 207
2,"Cn1cnc(C(=O)NC(c2ccccc2)C23CCCC(CN2)C3)c1 (racemic) [Compound 7, N-[(6-Azabicyclo[3.2.1]oct-5-yl)phenylmethyl](1-methyl)-1H-imidazole-4-carboxamide]",150 to 152
3,"O=C(NC(c1ccccc1)C12CCCC(CN1)C2)c1nccc(C(F)(F)F)c1Cl (racemic) (as salt: HCl) [Compound 3, N-[(6-Azabicyclo[3.2.1]oct-5-yl)phenylmethyl](3-chloro-4-trifluoromethyl)pyridine-2-carboxamide]",158 to 160
4,"CSc1ncccc1C(=O)NC(c1ccc(F)cc1)C12CCCC(CN1)C2 (racemic) (as salt: HCl) [Compound 8, N-[(6-Azabicyclo[3.2.1]oct-5-yl)(4-fluorophenyl)methyl]-2-methylsulfanyl-nicotinamide]",234 to 236
5,"O=C(NC(c1cccc(C(F)(F)F)c1)C12CCCC(CN1)C2)c1nccc(C(F)(F)F)c1Cl (racemic) (as salt: HCl) [Compound 11, N-[(6-Azabicyclo[3.2.1]oct-5-yl)(3-trifluoromethylphenyl)methyl](3-chloro-4-trifluoromethyl)pyridine-2-carboxamide]",250.4 to 251.4
6,"O=C(NC(c1ccccc1)C12CCCC(CN1)C2)c1cc(Cl)sc1Cl (racemic) [Compound 1, N-[(6-Azabicyclo[3.2.1]oct-5-yl)phenylmethyl](2,5-dichloro)thiophene-3-carboxamide]",95 to 97

# Target: T1, native human transporter GlyT1 (Homo sapiens, UniProt P48067)
# T1 construct: expressing the native human transporter GlyT1; endogenous in cells; host or cells: SK-N-MC (human neuroepithelial cells)
# T1 sequence (P48067 1-706): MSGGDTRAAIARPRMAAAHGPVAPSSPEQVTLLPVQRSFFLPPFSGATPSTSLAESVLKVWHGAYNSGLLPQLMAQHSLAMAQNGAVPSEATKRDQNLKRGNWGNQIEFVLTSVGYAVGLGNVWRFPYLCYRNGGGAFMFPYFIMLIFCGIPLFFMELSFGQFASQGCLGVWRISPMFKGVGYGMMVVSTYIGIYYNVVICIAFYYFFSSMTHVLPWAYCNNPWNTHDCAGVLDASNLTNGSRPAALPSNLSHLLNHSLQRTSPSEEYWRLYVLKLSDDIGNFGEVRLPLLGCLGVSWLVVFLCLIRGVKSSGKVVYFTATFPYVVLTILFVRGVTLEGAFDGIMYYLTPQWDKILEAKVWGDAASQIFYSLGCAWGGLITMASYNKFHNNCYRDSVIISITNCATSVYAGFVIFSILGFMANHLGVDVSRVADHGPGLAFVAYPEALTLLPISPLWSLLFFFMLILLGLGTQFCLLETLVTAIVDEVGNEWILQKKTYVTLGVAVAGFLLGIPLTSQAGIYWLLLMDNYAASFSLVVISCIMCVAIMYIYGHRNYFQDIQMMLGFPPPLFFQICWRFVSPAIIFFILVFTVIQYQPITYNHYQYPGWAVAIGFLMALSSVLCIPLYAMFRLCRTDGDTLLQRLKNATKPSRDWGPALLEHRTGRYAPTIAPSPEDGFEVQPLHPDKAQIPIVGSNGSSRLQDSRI
# Assay: Study of glycine transportation ([14C]glycine uptake) in SK-N-MC cells expressing the native human transporter GlyT1
# Assay type: cell-based
# Conditions: 10 μM [14C]glycine, 10 min at 37° C., concentration which reduces by 50% the specific uptake of glycine, read-out: CI50 (the source's name)
# Procedure: Study of Glycine Transportation in SK-N-MC Cells Expressing the Native Human Transporter GlyT1.
# The uptake of [^14C]glycine is studied in SK-N-MC cells (human neuroepithelial cells) expressing the native human transporter GlyT1 by measuring the radioactivity incorporated in the presence or absence of the test compound. The cells are cultured as a monolayer for 48 hours in plates pretreated with 0.02% fibronectin. On the day of the experiment, the culture medium is removed and the cells are washed with Krebs-HEPES (4-(2-hydroxyethyl)piperazine-1-ethanesulphonic acid) buffer at pH 7.4. After preincubation for 10 minutes at 37° C. in the presence either of buffer (control batch) or of test compound at various concentrations or of 10 mM of glycine (determination of the non-specific uptake), 10 μM of [^14C]glycine (specific activity 112 mCi/mmol) are subsequently added. Incubation is continued for 10 min at 37° C. and the reaction is halted by washing twice with pH 7.4 Krebs-HEPES buffer. The radioactivity incorporated by the cells is then estimated after adding 100 μl of liquid scintillant and stirring for 1 h. Counting is carried out on a Microbeta Tri-Lux™ counter. The effectiveness of the compound is determined by the IC50, the concentration of the compound which reduces by 50% the specific uptake of glycine, defined by the difference in radioactivity incorporated by the control batch and the batch which received the 10 mM glycine.
row,Compound,IC50 [µM]
1,"CSc1ncccc1C(=O)NC(c1ccccc1)C12CCCC(CN1)C2 (racemic) [Compound 2, N-[(6-azabicyclo[3.2.1]oct-5-yl)phenylmethyl](2-methylsulphanyl)nicotinamide]",0.14
2,"O=C(NC(c1ccccc1)C12CCCC(CN1)C2)c1nccc(C(F)(F)F)c1Cl (racemic) [Compound 3, N-[(6-Azabicyclo[3.2.1]oct-5-yl)phenylmethyl](3-chloro-4-trifluoromethyl)pyridine-2-carboxamide]",0.22
3,"O=C(NC(c1cccc(C(F)(F)F)c1)C12CCCC(CN1)C2)c1nccc(C(F)(F)F)c1Cl (racemic) [Compound 11, N-[(6-Azabicyclo[3.2.1]oct-5-yl)(3-trifluoromethylphenyl)methyl](3-chloro-4-trifluoromethyl)pyridine-2-carboxamide]",0.17
4,"O=C(NC(c1ccccc1)C12CCCC(CN1)C2)c1cccc2c1ccn2Cc1ccccc1 (centres unmarked) [Compound 6, [(6-Azabicyclo[3.2.1]oct-5-yl)phenylmethyl](1-benzyl)-1H-indole-4-carboxamide]",0.61
5,"CSc1ncccc1C(=O)NC(c1ccc(F)cc1)C12CCCC(CN1)C2 (racemic) [Compound 8, N-[(6-Azabicyclo[3.2.1]oct-5-yl)(4-fluorophenyl)methyl]-2-methylsulfanyl-nicotinamide]",0.13
